Measured values taken from US9872873B2, “Process for preparing stable pharmaceutical compositions of compounds susceptible to hydrolysis” (Fresenius Kabi Oncology Limited, priority 2012, dated 2018).

Experiments:
Type in all cases: physicochemical
[1] = Solution stability of Azacitidine bulk solution in Water:Acetonitrile 80:20% v/v at −5 ± 2° C.; set-up: RGU / RGU-CHO: unit not given beside the values
Method: (§1) In another aspect of the invention the fabrication temperature was controlled at −5±3° C., −5±2° C., −5±1° C. preferably −5±2° C. using Water and Acetonitrile ratio in between 95:5 to 70:30 preferably 80:20 (% v/v) respectively. The hold time data of Azacitidine, Decitabine and Bendamustine obtained in solvent mixture of Water and Acetonitrile at a ratio of 80:20 (% v/v), when fabricated at a temperature range of −5±2° C. is presented in Table VIII, IX, X respectively.

[2] = Solution stability profile of Azacitidine in water at −1° C. to 0° C.; set-up: RGU / Specified Imp-1 / Specified Imp-2 / RGU-CHO / Total Impurity (excluding RGU & RGU-CHO): unit not given here; conditions: for RGU / RGU-CHO / Specified Imp-1 / Specified Imp-2 / Total Impurity (excluding RGU & RGU-CHO): water, −1° C. to 0° C.
Method: It is evident from the Table I that Fabrication of the Azacitidine in water at room temperature led to a significant increase in the level of “RGU-CHO” in the Bulk Solution. Further, in order to control the degradation rate of Azacitidine, another batch was manufactured in water at possible temperature i.e. −1° C. to 0° C. by dissolving Azacitidine (4 mg/mL) and Mannitol (4 mg/mL) in water at −1° C. to 0° C. and the solution stability results are shown below in Table II.

[3] = Solution stability profile of Azacitidine in water at 25° C.; set-up: unit not given here
Method: In one embodiment of the invention, a batch of Azacitidine bulk solution was prepared by dissolving the compound (4 mg/mL) and Mannitol (4 mg/mL) in water at room temperature. […]

[4] = Solution stability of Bendamustine Hydrochloride bulk solution in Water:Acetonitrile 80:20% v/v at −5 ± 2° C.
Method: as §1

[5] = Stability profile of Bendamustine Hydrochloride pre-lyophilized bulk solution in water (5 mg/mL) at 5 ± 3° C.

Nc1ncn([C@@H]2O[C@H](CO)[C@@H](O)[C@H]2O)c(=O)n1 [Azacitidine]
Assay ([1]; 1st hour): 101.00 | Imp-1 ([1]; 1st hour): 0.028 | Imp-2 ([1]; 1st hour): 0.066 | RGU ([1]; 1st hour): 0.145 | RGU-CHO ([1]; 1st hour): 0.326 | Total Impurity (excluding RGU & RGU-CHO) ([1]; 1st hour): 0.094 | Assay ([1]; 2nd hour): 101.30 | Imp-1 ([1]; 2nd hour): 0.028 | Imp-2 ([1]; 2nd hour): 0.066 | RGU ([1]; 2nd hour): 0.145 | RGU-CHO ([1]; 2nd hour): 0.45 | Total Impurity (excluding RGU & RGU-CHO) ([1]; 2nd hour): 0.094 | Assay ([1]; 3rd hour): 100.80 | Imp-1 ([1]; 3rd hour): 0.031 | Imp-2 ([1]; 3rd hour): 0.068 | RGU ([1]; 3rd hour): 0.146 | RGU-CHO ([1]; 3rd hour): 0.591 | Total Impurity (excluding RGU & RGU-CHO) ([1]; 3rd hour): 0.099 | Assay ([1]; 4th hour): 101.30 | Imp-1 ([1]; 4th hour): 0.026 | Imp-2 ([1]; 4th hour): 0.067 | RGU ([1]; 4th hour): 0.146 | RGU-CHO ([1]; 4th hour): 0.730 | Total Impurity (excluding RGU & RGU-CHO) ([1]; 4th hour): 0.093 | Assay ([1]; 5th hour): 101.00 | Imp-1 ([1]; 5th hour): 0.049 | Imp-2 ([1]; 5th hour): 0.069 | RGU ([1]; 5th hour): 0.148 | RGU-CHO ([1]; 5th hour): 0.839 | Total Impurity (excluding RGU & RGU-CHO) ([1]; 5th hour): 0.118 | Assay ([1]; Initial): 101.80 | Imp-1 ([1]; Initial): 0.05 | Imp-2 ([1]; Initial): 0.068 | RGU ([1]; Initial): 0.143 | RGU-CHO ([1]; Initial): 0.164 | Total Impurity (excluding RGU & RGU-CHO) ([1]; Initial): 0.118 | degradation in RGU-CHO ([2]; manufacturing in water at −1° C. to 0° C.): around 4% | RGU ([2]; 1st hour): 0.175 | RGU-CHO ([2]; 1st hour): 1.767 | Specified Imp-1 ([2]; 1st hour): 0.025 | Specified Imp-2 ([2]; 1st hour): 0.051 | Total Impurity (excluding RGU & RGU-CHO) ([2]; 1st hour): 0.076 | RGU ([2]; 2nd hour): 0.166 | RGU-CHO ([2]; 2nd hour): 2.283 | Specified Imp-1 ([2]; 2nd hour): 0.025 | Specified Imp-2 ([2]; 2nd hour): 0.051 | Total Impurity (excluding RGU & RGU-CHO) ([2]; 2nd hour): 0.076 | RGU ([2]; 3rd hour): 0.175 | RGU-CHO ([2]; 3rd hour): 2.921 | Specified Imp-1 ([2]; 3rd hour): 0.026 | Specified Imp-2 ([2]; 3rd hour): 0.051 | Total Impurity (excluding RGU & RGU-CHO) ([2]; 3rd hour): 0.077 | RGU ([2]; 4th hour): 0.191 | RGU-CHO ([2]; 4th hour): 4.112 | Specified Imp-1 ([2]; 4th hour): 0.027 | Specified Imp-2 ([2]; 4th hour): 0.051 | Total Impurity (excluding RGU & RGU-CHO) ([2]; 4th hour): 0.078 | RGU ([2]; Initial): 0.158 | RGU-CHO ([2]; Initial): 0.891 | Specified Imp-1 ([2]; Initial): 0.027 | Specified Imp-2 ([2]; Initial): 0.051 | Total Impurity (excluding RGU & RGU-CHO) ([2]; Initial): 0.078 | Imp-1 ([3]; 1st hour): 0.027 | Imp-2 ([3]; 1st hour): 0.050 | RGU ([3]; 1st hour): 0.314 | RGU-CHO ([3]; 1st hour): 6.966 | Total Impurity (excluding RGU & RGU-CHO) ([3]; 1st hour): 0.077 | Imp-1 ([3]; 2nd hour): 0.028 | Imp-2 ([3]; 2nd hour): 0.050 | RGU ([3]; 2nd hour): 0.591 | RGU-CHO ([3]; 2nd hour): 10.495 | Total Impurity (excluding RGU & RGU-CHO) ([3]; 2nd hour): 0.078 | Imp-1 ([3]; Initial): 0.027 | Imp-2 ([3]; Initial): 0.051 | RGU ([3]; Initial): 0.164 | RGU-CHO ([3]; Initial): 1.158 | Total Impurity (excluding RGU & RGU-CHO) ([3]; Initial): 0.078

Cl.Cn1c(CCCC(=O)O)nc2cc(N(CCCl)CCCl)ccc21 [Bendamustine Hydrochloride]
Bendamustine Dimer (RRT 1.23) ([4]; 1 hr): 0.05% | Bendamustine Ethyl Ester (BD 5) (RRT 1.38) ([4]; 1 hr): 0.003% | H-unk (Highest Unknown Impurity) ([4]; 1 hr): 0.03% | Monohydroxy Bendamustine (RRT 0.47) ([4]; 1 hr): 0.02% | Total Related Substances ([4]; 1 hr): 0.17% | Bendamustine Dimer (RRT 1.23) ([4]; 2 hr): 0.05% | Bendamustine Ethyl Ester (BD 5) (RRT 1.38) ([4]; 2 hr): 0.003% | H-unk (Highest Unknown Impurity) ([4]; 2 hr): 0.03% | Monohydroxy Bendamustine (RRT 0.47) ([4]; 2 hr): 0.03% | Total Related Substances ([4]; 2 hr): 0.18% | Bendamustine Dimer (RRT 1.23) ([4]; 3 hr): 0.05% | Bendamustine Ethyl Ester (BD 5) (RRT 1.38) ([4]; 3 hr): 0.003% | H-unk (Highest Unknown Impurity) ([4]; 3 hr): 0.03% | Monohydroxy Bendamustine (RRT 0.47) ([4]; 3 hr): 0.04% | Total Related Substances ([4]; 3 hr): 0.19% | Bendamustine Dimer (RRT 1.23) ([4]; 6 hr): 0.06% | Bendamustine Ethyl Ester (BD 5) (RRT 1.38) ([4]; 6 hr): 0.003% | H-unk (Highest Unknown Impurity) ([4]; 6 hr): 0.03% | Monohydroxy Bendamustine (RRT 0.47) ([4]; 6 hr): 0.07% | Total Related Substances ([4]; 6 hr): 0.23% | Bendamustine Dimer (RRT 1.23) ([4]; 8 hr): 0.06% | Bendamustine Ethyl Ester (BD 5) (RRT 1.38) ([4]; 8 hr): 0.003% | H-unk (Highest Unknown Impurity) ([4]; 8 hr): 0.03% | Monohydroxy Bendamustine (RRT 0.47) ([4]; 8 hr): 0.09% | Total Related Substances ([4]; 8 hr): 0.25% | Bendamustine Dimer (RRT 1.23) ([4]; Initial): 0.05% | Bendamustine Ethyl Ester (BD 5) (RRT 1.38) ([4]; Initial): 0.003% | H-unk (Highest Unknown Impurity) ([4]; Initial): 0.03% | Monohydroxy Bendamustine (RRT 0.47) ([4]; Initial): 0.01% | Total Related Substances ([4]; Initial): 0.15% | Bendamustine Dimer (RRT 1.23) ([5]; 4 hr): 0.06% | Bendamustine Ethyl Ester (BD 5) (RRT 1.38) ([5]; 4 hr): 0.01% | H-unk (Highest Unknown Impurity) ([5]; 4 hr): 0.01% | Monohydroxy Bendamustine (RRT 0.47) ([5]; 4 hr): 0.58% | Total Related Substances ([5]; 4 hr): 0.69% | Bendamustine Dimer (RRT 1.23) ([5]; 8 hr): 0.10% | Bendamustine Ethyl Ester (BD 5) (RRT 1.38) ([5]; 8 hr): 0.01% | H-unk (Highest Unknown Impurity) ([5]; 8 hr): 0.01% | Monohydroxy Bendamustine (RRT 0.47) ([5]; 8 hr): 1.59% | Total Related Substances ([5]; 8 hr): 1.77% | Bendamustine Dimer (RRT 1.23) ([5]; 24 hr): 0.19% | Bendamustine Ethyl Ester (BD 5) (RRT 1.38) ([5]; 24 hr): 0.01% | H-unk (Highest Unknown Impurity) ([5]; 24 hr): 0.01% | Monohydroxy Bendamustine (RRT 0.47) ([5]; 24 hr): 4.13% | Total Related Substances ([5]; 24 hr): 4.37% | Bendamustine Dimer (RRT 1.23) ([5]; Initial): 0.04% | Bendamustine Ethyl Ester (BD 5) (RRT 1.38) ([5]; Initial): 0.00% | H-unk (Highest Unknown Impurity) ([5]; Initial): 0.01% | Monohydroxy Bendamustine (RRT 0.47) ([5]; Initial): 0.12% | Total Related Substances ([5]; Initial): 0.20%
